From US7816350B2, “Substituted [1,2,3] triazolo[4,5-D]pyrimidines as cdk inhibitors” (Institute of Experimental Botany ASCR, priority 2002, dated 2010) come the findings set out here.

One series deals with CDK9 - cyclin T1 (Homo sapiens, UniProt P50750). The series can be described thus: CDK inhibitory activity, CDK9 - cyclin T1. The series is classed as biochemical.
The target in a further series is T1, p33^cdk2 (cyclin E) (Homo sapiens, UniProt P24941).
T1 construct: made in house; host or cells: Sf9 insect cells (baculovirus co-infection)
The series can be described thus: CDK inhibition assay, p33cdk2 kinase, histone H1 phosphorylation. The format is biochemical. Here is the method:
(§1) Cyclin-dependent kinases (p34^cdc2, p33^cdk2) and cyclins (cyclin B, E) are produced in Sf9 insect cells coinfected with appropriate baculoviral constructs. The cells are harvested 68-72 hrs post infection in lysis buffer for 30 min on ice and the soluble fraction is recovered by centrifugation at 14.000 g for 10 min. The protein extract is stored at −80° C.
(§2) Lysis buffer: 50 mM Tris pH 7.4, 150 mM NaCl, 5 mM EDTA, 20 mM NaF, 1% Tween, 1 mM DTT, 0.1 mM PMSF, leupeptine, aprotonine.
(§3) To carry out experiments on kinetics under linear conditions, the final point test system for kinase activity measurement is used. The kinase is added to reaction mixture in such a way as to obtain linear activity with respect to the concentration of enzyme and with respect to time.
(§4) The p34^cdc2 and p33^cdk2 kinase inhibition determination involves the use of 1 mg/ml histone H1 (Sigma, type III-S) in the presence of 15 μM [γ-^32P]ATP ([…]) (Amersham) in a final volume of 20 μl. Kinase activity is determined at 30° C. in the kinase buffer.
(§5) Tested compounds are usually dissolved to 100 mM solutions in DMSO, final concentration of DMSO in reaction mixture never exceeds 1%. The controls contain suitable dilutions of DMSO.
(§6) After 10 min, addition 3×SDS sample buffer stops the incubations. Phosphorylated proteins are separated electrophoretically using 12.5% SDS polyacrylamide gel. The measurement of kinase activity is done using digital image analysis.
(§7) The kinase activity is expressed as a percentage of maximum activity, the apparent inhibition constants are determined by graphic analysis (FIG. 1).
(§8) Kinase buffer: 50 mM Hepes pH 7.4, 10 mM MgCl2, 5 mM EGTA, 10 mM 2-glycerolphosphate, 1 mM NaF, 1 mM DTT

Another series deals with β-adrenergic receptors. In words: Modulation of the activity of β-adrenergic receptors, isoproterenol-induced cAMP synthesis in C6 glioma. The series is classed as cell-based. The settings on record: cAMP synthesis induced by 5 μM (−) isoproterenol, rat C6 glioma; for Effect: result in words; for IC50: read-out: I50. Here is the method:
Rat C6 glioma (ATCC N^o CCL107) was cultivated in monolayer in serum-free chemically defined medium containing Ham's F10/minimal essential medium (1:1 vol/vol), 2 mM L-glutamine, 1% (vol/vol) minimal essential medium vitamins (100×), 1% (vol/vol) minimal essential medium nonessential amino acids (100×), 100 U/ml penicillin, 100 μg/ml streptomycin and 30 nM sodium selenite. Incubation was at 37° C. in a humidified atmosphere. Assays were performed in the logarithmic growth phase at a density of 2.5×10^5 cells/cm^2. Intracellular cAMP synthesis was induced by addition of 5 μM (−) isoproterenol. After 30 min incubation at 37° C. the medium was removed and the cellular amount of cAMP determined using the cAMP-enzyme immunoassay kit of Amersham. The I50 is determined from a dose-response curve in duplicate (Table 7). The effect of seven 8-azapurine-analogs was measured after simultaneous addition with isoproterenol.
As P2Y1-like and A2 purinergic receptors, negatively and positively coupled to adenylate cyclase respectively, are present on rat C6 glioma it has to be determined if the modulation of the synthesis of cAMP is due to inhibition of the activation of β-adrenergic receptors by isoproterenol are due to activation of purinergic receptors.

For another series, the target named is T2, p34^cdc2/cyclin B (CDC2) (Homo sapiens, UniProt P06493).
T2 construct: made in house; host or cells: Sf9 insect cells (baculovirus co-infection)
T2 sequence (P06493 whole entry, species assumed): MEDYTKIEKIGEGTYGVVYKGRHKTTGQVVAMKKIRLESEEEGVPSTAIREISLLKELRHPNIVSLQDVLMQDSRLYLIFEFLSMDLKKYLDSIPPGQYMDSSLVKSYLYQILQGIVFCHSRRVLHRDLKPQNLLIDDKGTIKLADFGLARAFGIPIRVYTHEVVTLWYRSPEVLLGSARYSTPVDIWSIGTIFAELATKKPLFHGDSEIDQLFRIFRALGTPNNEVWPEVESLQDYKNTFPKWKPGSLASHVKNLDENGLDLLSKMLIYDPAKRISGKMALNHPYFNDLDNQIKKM
T2 sequence (P14635 whole entry partner, species assumed): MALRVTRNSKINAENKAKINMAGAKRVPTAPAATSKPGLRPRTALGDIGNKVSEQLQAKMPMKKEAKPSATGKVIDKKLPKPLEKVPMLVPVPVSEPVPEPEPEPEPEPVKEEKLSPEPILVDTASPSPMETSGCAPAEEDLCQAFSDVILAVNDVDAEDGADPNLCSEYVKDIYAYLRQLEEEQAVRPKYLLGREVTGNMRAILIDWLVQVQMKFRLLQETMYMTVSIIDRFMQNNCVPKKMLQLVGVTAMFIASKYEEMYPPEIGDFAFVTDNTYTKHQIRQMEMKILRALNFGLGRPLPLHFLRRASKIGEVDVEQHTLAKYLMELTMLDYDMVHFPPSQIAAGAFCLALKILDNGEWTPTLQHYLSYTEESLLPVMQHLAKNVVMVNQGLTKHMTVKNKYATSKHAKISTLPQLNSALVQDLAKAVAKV
The series can be described thus: CDK inhibition assay, p34cdc2/cyclin B kinase, histone H1 phosphorylation. The series is classed as biochemical. Here is the method:
as §1, §2, §3, §4, §5, §6, §7, §8

The target in a further series is IκB-α kinase. In words: IκB-α kinase inhibitory activity, in vitro kinase assay. The format is biochemical.
Another series relates to K-562. The series can be described thus: In vitro cytotoxic activity, MTT assay, K-562. The format is cell-based. The settings on record: Homo sapiens, K562, 72 hours.
The subject of a further series is MCF7. In words: In vitro cytotoxic activity, MTT assay, MCF7. The series is classed as cell-based. The settings on record: Homo sapiens, 72 hours. The source says:
One of the parameters used, as the basis for colorimetric assays is the metabolic activity of viable cells. For example, a microtiter assay, which uses the tetrazolium salt MTT, is now widely used to quantitate cell proliferation and cytotoxicity. For instance, this assay is used in drug screening programs and in chemosensitivity testing. Because only metabolically active cells cleave tetrazolium salts, these assays detect viable cells exclusively. In the case of MTT assay, yellow soluble tetrazolium salt is reduced to coloured water-insoluble formazan salt. After it is solubilized, the formazan formed can easily and rapidly be quantified in a conventional ELISA plate reader at 570 nm (maximum absorbance). The quantity of reduced formazan corresponds to number of vital cells in the culture.
Human T-lymphoblastic leukemia cell line CEM; promyelocytic HL-60 and monocytic U937 leukemias; breast carcinoma cell lines MCF-7, BT549, MDA-MB-231; glioblastoma U87MG cells; cervical carcinoma cells HELA; sarcoma cells U2OS and Saos2; hepatocellular carcinoma HepG2; mouse immortalized bone marrow macrophages B2.4 and B10A.4; P388D1 and L1210 leukemia; B16 and B16F10 melanomas were used for routine screening of compounds. The cells were maintained in Nunc/Corning 80 cm^2 plastic tissue culture flasks and cultured in cell culture medium (DMEM with 5 g/l glucose, 2 mM glutamine, 100 U/ml penicillin, 100 μg/ml streptomycin, 10% fetal calf serum and sodium bicarbonate).
The cell suspensions that were prepared and diluted according to the particular cell type and the expected target cell density (2.500-30.000 cells per well based on cell growth characteristics) were added by pipette (80 μl) into 96/well microtiter plates. Inoculates were allowed a pre-incubation period of 24 hours at 37° C. and 5% CO2 for stabilisation. Four-fold dilutions of the intended test concentration were added at time zero in 20 μl aliquots to the microtiter plate wells. Usually, test compound was evaluated at six 4-fold dilutions. In routine testing, the highest well concentration was 266.7 μM, but it can be the matter of change dependent on the agent. All drug concentrations were examined in duplicates. Incubations of cells with the test compounds lasted for 72 hours at 37° C., in 5% CO2 atmosphere and 100% humidity. At the end of incubation period, the cells were assayed by using the MTT. Ten microliters of the MTT stock solution were pipetted into each well and incubated further for 1-4 hours. After this incubation period, formazan was solubilized by addition of 100 μl/well of 10% SDS in water (pH=5.5) followed by further incubation at 37° C. overnight. The optical density (OD) was measured at 540 nm with the Labsystem iEMS Reader MF (UK). The tumour cell survival (TCS) was calculated using the following equation: TCS=(ODdrug exposed well/mean ODcontrol wells)×100%. The IC50 value, the drug concentration lethal to 50% of the tumour cells, was calculated from the obtained dose response curves (FIG. 2).
Background: Tetrazolium dyes change colour on reduction, which living cells bring about.

Each structure is given as a SMILES string.

Chain of CDK9 - cyclin T1 (P50750 whole entry): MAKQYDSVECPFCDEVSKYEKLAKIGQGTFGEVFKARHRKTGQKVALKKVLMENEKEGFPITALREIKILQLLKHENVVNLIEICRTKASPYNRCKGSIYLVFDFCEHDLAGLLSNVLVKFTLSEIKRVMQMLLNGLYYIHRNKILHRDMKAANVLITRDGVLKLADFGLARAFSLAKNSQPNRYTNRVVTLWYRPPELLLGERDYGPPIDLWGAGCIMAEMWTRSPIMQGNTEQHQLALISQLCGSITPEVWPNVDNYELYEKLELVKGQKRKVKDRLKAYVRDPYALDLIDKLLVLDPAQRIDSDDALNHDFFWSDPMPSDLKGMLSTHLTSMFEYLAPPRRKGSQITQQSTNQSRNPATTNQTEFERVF
Chain of CDK9 - cyclin T1 (O60563 whole entry partner): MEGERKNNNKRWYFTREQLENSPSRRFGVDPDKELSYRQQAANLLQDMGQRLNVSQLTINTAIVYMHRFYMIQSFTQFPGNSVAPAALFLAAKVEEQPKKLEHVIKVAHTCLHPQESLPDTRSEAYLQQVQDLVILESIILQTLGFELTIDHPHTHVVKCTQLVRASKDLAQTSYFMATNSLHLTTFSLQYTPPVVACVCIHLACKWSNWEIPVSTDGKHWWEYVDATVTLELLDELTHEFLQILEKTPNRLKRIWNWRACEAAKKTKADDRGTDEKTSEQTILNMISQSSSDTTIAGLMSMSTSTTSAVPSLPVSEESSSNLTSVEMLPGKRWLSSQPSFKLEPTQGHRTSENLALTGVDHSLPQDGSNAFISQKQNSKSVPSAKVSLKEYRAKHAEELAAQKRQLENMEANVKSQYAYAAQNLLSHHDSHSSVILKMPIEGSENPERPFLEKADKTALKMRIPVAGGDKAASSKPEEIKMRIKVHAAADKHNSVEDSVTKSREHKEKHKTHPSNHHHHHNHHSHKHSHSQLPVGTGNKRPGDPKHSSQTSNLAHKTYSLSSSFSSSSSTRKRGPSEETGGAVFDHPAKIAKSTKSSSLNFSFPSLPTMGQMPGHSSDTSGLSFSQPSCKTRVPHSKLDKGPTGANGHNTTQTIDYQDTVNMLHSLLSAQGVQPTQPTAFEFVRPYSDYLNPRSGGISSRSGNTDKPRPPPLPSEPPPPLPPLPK

On to `CC(C)n1nnc2c(NCc3ccccc3O)nc(N[C@H]3CC[C@H](N)CC3)nc21` [Example 12, 2-(trans-4-Aminocyclohexylamino)-6-(2-hydroxybenzylamino)-9-isopropyl-8-azapurine], for which the melting point (as a rule, the temperature, or range, at which the solid turns liquid) was in the range of 120 to 123 °C.
In turn, `NCCCNc1nc(NCc2ccccc2)c2[nH]nnc2n1` [Example 20, 2-(3-Aminopropylamino)-6-benzylamino-8-azapurine] registered a melting point of 119 to 124 °C.
`CC(C)C(CO)Nc1nc(Nc2cccc(Cl)c2)c2nnn(C(C)C)c2n1` (stereo not shown) [Example 10, 2-(1-Hydroxymethyl-2-methylpropylamino)-6-(3-chloroanilino)-9-isopropyl-8-azapurine]: the melting point was in the range of 160 to 163 °C.
With `CC(C)n1nnc2c(NCc3ccccc3O)nc(NC3CCC(N)CC3)nc21` (stereo not shown), the IC50 worked out at 14.7 µM against CDK9 - cyclin T1 and 27.7 µM against p33^cdk2 (cyclin E).
For the compound `CC[C@H](CO)Nc1nc(NCc2ccc(O)cc2)c2[nH]nc(C(C)C)c2n1`, in the series with β-adrenergic receptors, the “Effect, fold activation” value was 1.2-fold activation.
`CC(C)n1nnc2c(NCc3cccc(O)c3)nc(NC3CCC(N)CC3)nc21` (stereo not shown): the IC50 was 1.7 µM against CDK9 - cyclin T1 and more than 10 µM against p33^cdk2 (cyclin E).
In turn, `CC(C)C(CO)Nc1nc(NCc2cccc(O)c2)c2nnn(C(C)C)c2n1` (stereo not shown) [Example 9, 2-(1-Hydroxymethyl-2-methylpropylamino)-6-(3-hydroxybenzylamino)-9-isopropyl-8-azapurine] returned a melting point of 150 to 152 °C.
`CC[C@H](CO)Nc1nc(NCc2ccc(OC)c(O)c2)c2nnn(C(C)C)c2n1`: the IC50 against CDK9 - cyclin T1 is 2 µM; against p33^cdk2 (cyclin E), 6.4 µM.
Consider `CC[C@H](CO)Nc1nc(NCc2cccc(O)c2)c2nnn(C(C)C)c2n1` [2-R-(1-hydroxymethyl)propylamino-6-(3-hydroxybenzyl)amino-9-isopropyl-8-azapurine], for which the IC50 was 10 µM against p34^cdc2/cyclin B (CDC2) and 85 µM against IκB-α kinase. Moreover, in the series with β-adrenergic receptors, the “Effect, fold activation” value was 1.3-fold activation.
As for `CC(C)n1nnc2c(NCc3ccc(O)cc3)nc(NC3CCC(N)CC3)nc21` (stereo not shown), the IC50 at CDK9 - cyclin T1 is 1.4 µM; on p33^cdk2 (cyclin E) it was more than 10 µM.
For `CC(C)n1nnc2c(NCc3ccccc3)nc(NCCCO)nc21`, in that order: 29.2 µM and 54.6 µM.
As to `CC(C)n1nnc2c(NCc3ccccc3)nc(NCCN)nc21`, the IC50 against p34^cdc2/cyclin B (CDC2) and on IκB-α kinase was more than 100 µM throughout. Also, the “Effect, fold activation” value with β-adrenergic receptors is on record as 1.1-fold activation.
Take `CC(C)n1nnc2c(NCc3ccccc3)nc(NCCCN)nc21`: the IC50 was more than 100 µM at p34^cdc2/cyclin B (CDC2), 31 ± 2 µM with β-adrenergic receptors and more than 100 µM against IκB-α kinase. The Effect entry with β-adrenergic receptors is on record as “inhibition”.
Regarding `CC[C@H](CO)Nc1nc(NCc2ccccc2)c2nnn(C(C)C)c2n1`, the IC50 is 11.5 µM on CDK9 - cyclin T1 and 23.2 µM on p33^cdk2 (cyclin E).
As for `COc1ccc(CNc2nc(NC3CCCCC3N)nc3c2nnn3C(C)C)cc1O` (stereo not shown), the values for the IC50 on CDK9 - cyclin T1 and at p33^cdk2 (cyclin E) were 1.7 µM and 7 µM, respectively.
Turning to `OC1CCC(Nc2nc(Nc3cccc(Cl)c3)c3nn[nH]c3n2)CC1` (stereo not shown), the IC50 at CDK9 - cyclin T1 was 8 µM; against p33^cdk2 (cyclin E) it was 0.1 µM.
`CC(C)n1nnc2c(Nc3cccc(Cl)c3)nc(NC3CCC(N)CC3)nc21` (stereo not shown): the IC50 amounted to 1.1 µM against CDK9 - cyclin T1 and 3.1 µM against p33^cdk2 (cyclin E).
Consider `CCCCCCNc1nc(NC(CO)c2ccccc2)c2nnn(C(C)C)c2n1` (racemic), for which, in the series on β-adrenergic receptors, the Effect entry is on record as “inhibition” and the IC50 is 12 ± 1 µM.
Turning to `CC(C)n1nnc2c(NCc3ccccc3O)nc(NC3CCC(O)CC3)nc21` (stereo not shown), the figures for the IC50 on CDK9 - cyclin T1 and against p33^cdk2 (cyclin E) were 9.9 µM and more than 10 µM, respectively.
In the case of `CC(C)C(CO)Nc1nc(NCc2ccccc2O)c2nnn(C(C)C)c2n1` (stereo not shown), the IC50 on CDK9 - cyclin T1 came out at 2.5 µM; at p33^cdk2 (cyclin E), 6.9 µM.
For the compound `CC(C)n1nnc2c(Nc3cccc(Cl)c3)nc(NCCN)nc21`, the IC50 was more than 100 µM against p34^cdc2/cyclin B (CDC2), more than 100 µM with K-562, more than 100 µM on IκB-α kinase and 100 µM in the series on MCF7.
In the case of `CC(C)C(CO)Nc1nc(NCc2ccccc2)c2nnn(C(C)C)c2n1` (stereo not shown), in the series with β-adrenergic receptors, the Effect result is reported as “inhibition” and the IC50 was 32 ± 2 µM.
Turning to `CC(C)n1nnc2c(Nc3cccc(Cl)c3)nc(NC3CCC(N)CC3)nc21` (stereo not shown) [2-(4-aminocyclohexyl)amino-6-(3-chlorophenyl)amino-9-isopropyl-8-azapurine], the melting point fell in the range of 221 to 223 °C. The compound also gave an IC50 at p34^cdc2/cyclin B (CDC2) of 6.3 µM. In addition, the IC50 with K-562 came to 7.4 µM. At IκB-α kinase, this compound registered an IC50 of 60 µM. Also, the IC50 with MCF7 was 6.1 µM.
`Cc1nc(NCc2ccccc2)c2nnn(C(C)C)c2n1` [Example 15, 2-methyl-6-benzylamino-9-isopropyl-8-azapurine] came in with a melting point of 133 to 139 °C.
With `Clc1nc(NCc2ccccc2)c2[nH]nnc2n1` [Example 18, 2-Chloro-6-benzylamino-8-azapurine], the melting point lay within 122 to 124 °C.
